Results reported in ChEMBL document CHEMBL1138627, “1-Methyl and 1-(2-hydroxyalkyl)-5-(3-alkyl/cycloalkyl/phenyl/naphthylureido)-1H-pyrazole-4-carboxylic acid ethyl esters as potent human neutrophil chemotaxis inhibitors” (Bioorg Med Chem, 2009).

How the values were obtained:
[1] = tested on: Neutrophil; experiment: Reduction of chemotaxis in human neutrophils assessed as inhibition of fMLP-OMe-induced cell migration pretreated 10 mins before fMLP-OMe challenge; type: functional, cell-based
[2] = Cytotoxicity against human neutrophils assessed as LDH release; type: cell-based; design: concentration or dose not given beside the values; conditions: neutrophil
[3] = tested on: Neutrophil; experiment: Reduction of chemotaxis in human neutrophils assessed as inhibition of IL8-induced cell migration pretreated 10 mins before IL8 challenge; type: functional, cell-based
[4] = tested on: Mus musculus; experiment: Antiinflammatory activity against zymosan-induced peritonitis in Swiss mouse assessed as inhibition of granulocyte infiltration into peritoneal cavity at 50 mg/kg, po administered 1 hr before zymosan challenge measured after 4 hrs; type: functional; design: scale not given: the % may be the effect or the level left
[5] = tested on: Mus musculus; experiment: Antiinflammatory activity against zymosan-induced peritonitis in Swiss mouse assessed as protein concentration at 50 mg/kg, po administered 1 hr before zymosan challenge by spectrophotometry; type: functional
[6] = tested on: Neutrophil; experiment: Inhibition of chemotaxis in human neutrophils assessed as reduction of fMLP-OMe-induced cell migration at 10 uM relative to control; type: functional
[7] = tested on: Mus musculus; experiment: Antiinflammatory activity against zymosan-induced peritonitis in Swiss mouse assessed as monocyte and lymphocyte content in peritoneal cavity at 50 mg/kg, po administered 1 hr before zymosan challenge measured after 4 hrs; type: functional
[8] = tested on: Mus musculus; experiment: Antiinflammatory activity against zymosan-induced peritonitis in Swiss mouse assessed as inhibition of granulocyte infiltration into peritoneal cavity at 3 mg/kg, po administered 1 hr before zymosan challenge measured after 4 hrs; type: functional; design: scale not given: the % may be the effect or the level left
[9] = tested on: Mus musculus; experiment: Antiinflammatory activity against zymosan-induced peritonitis in Swiss mouse assessed as granulocyte content in peritoneal cavity lavage at 3 mg/kg, po administered 1 hr before zymosan challenge measured after 4 hrs; type: functional
[10] = tested on: Mus musculus; experiment: Antiinflammatory activity against zymosan-induced peritonitis in Swiss mouse assessed as monocyte and lymphocyte content in peritoneal cavity lavage at 3 mg/kg, po administered 1 hr before zymosan challenge measured after 4 hrs; type: functional
[11] = tested on: Mus musculus; experiment: Antiinflammatory activity against zymosan-induced peritonitis in Swiss mouse assessed as peritoneal protein concentration at 3 mg/kg, po administered 1 hr before zymosan challenge by spectrophotometry; type: functional
[12] = tested on: Mus musculus; experiment: Antiinflammatory activity against zymosan-induced peritonitis in Swiss mouse assessed as inhibition of granulocyte infiltration into peritoneal cavity at 100 mg/kg, po administered 1 hr before zymosan challenge measured after 4 hrs; type: functional

| SMILES | IC50 ([1]; read-out: IC50) [nM] | IC50 [3] [pM] | Activity [2] [%] | also measured |
| --- | --- | --- | --- | --- |
| CCOC(=O)c1cnn(CC(C)O)c1NC(=O)Nc1ccccc1F (stereo not drawn) | 100 | 0.55 | < 3 | Activity [4]: 34%; protein concentration [5]: 2.62 µg/mL |
| CCOC(=O)c1cnn(CC(O)CC)c1NC(=O)N1CCN(Cc2ccccc2)CC1 (stereo not drawn) | 2000 | 0.08 | < 3 | – |
| CCOC(=O)c1cnn(CC(C)O)c1NC(=O)N1CCN(Cc2ccccc2)CC1 (stereo not drawn) | > 10 | 0.99 | < 3 | inhibition at 10 µM [6]: 63% |
| CCOC(=O)c1cnn(CC(C)O)c1NC(=O)Nc1cccc(F)c1 (stereo not drawn) | > 10 | 0.7 | < 3 | inhibition at 10 µM [6]: 60%; Activity [4]: 21%; Activity [5]: 2.68%; Activity [7]: 23% |
| CCOC(=O)c1cnn(CC(O)CC)c1NC(=O)Nc1cccc2ccccc12 (stereo not drawn) | 12 | 9600 | < 3 | – |
| CCOC(=O)c1cnn(CC(O)CC)c1NC(=O)Nc1ccc(F)cc1 (stereo not drawn) | 3.2 | 1900 | < 3 | – |
| CCOC(=O)c1cnn(CC(C)O)c1NC(=O)NCc1ccccc1 (stereo not drawn) | 15 | 0.54 | < 3 | – |
| C[C@@H]1C[C@H]2[C@@H]3CCC4=CC(=O)C=C[C@]4(C)[C@@]3(F)[C@@H](O)C[C@]2(C)[C@@]1(O)C(=O)CO [DEXAMETHASONE] | – | – | – | Activity [8]: 35%; Activity [9]: 81%; Activity [10]: 20%; protein concentration [11]: 1.75 µg/mL |
| CCOC(=O)c1cnn(CC(O)c2ccccc2)c1NC(=O)Nc1ccccc1 (stereo not drawn) | – | 45000 | – | – |
| CCOC(=O)c1cnn(CC(C)O)c1NC(=O)Nc1cccc2ccccc12 (stereo not drawn) | 9.8 | 0.97 | < 3 | – |
| C/C=C/C[C@@H](C)[C@@H](O)[C@H]1C(=O)N[C@@H](CC)C(=O)N(C)CC(=O)N(C)[C@@H](CC(C)C)C(=O)N[C@@H](C(C)C)C(=O)N(C)[C@@H](CC(C)C)C(=O)N[C@@H](C)C(=O)N[C@H](C)C(=O)N(C)[C@@H](CC(C)C)C(=O)N(C)[C@@H](CC(C)C)C(=O)N(C)[C@@H](C(C)C)C(=O)N1C [CYCLOSPORINE] | – | – | – | IC50 [1]: 0.047 nM |
| CCOC(=O)c1cnn(CC(O)CC)c1NC(=O)NCc1ccccc1 (stereo not drawn) | > 10 | – | < 3 | inhibition at 10 µM [6]: 54% |
| CCOC(=O)c1cnn(CC(O)c2ccccc2)c1NC(=O)NC(C)C (stereo not drawn) | – | 55000 | – | – |
| CCOC(=O)c1cnn(C)c1NC(=O)NCc1ccccc1 | 18 | 1300 | < 3 | – |
| CCOC(=O)c1cnn(CC(O)c2ccccc2)c1NC(=O)Nc1cccc(F)c1 (stereo not drawn) | – | – | – | inhibition in vivo at 100 mg/kg [12]: 33% |
| CCOC(=O)c1cnn(C)c1NC(=O)NC(C)C | 77 | 1.8 | < 3 | – |

Second part, led by results:

| IC50 ([1]; read-out: IC50) [nM] | IC50 [3] [pM] | SMILES | Activity [2] [%] | also measured |
| --- | --- | --- | --- | --- |
| 120 | – | CCOC(=O)c1cnn(CC(O)CC)c1NC(=O)Nc1ccccc1F (stereo not drawn) | < 3 | – |
| 0.43 | – | CCCC(O)Cn1ncc(C(=O)OCC)c1NC(=O)NCc1ccccc1 (stereo not drawn) | < 3 | – |
| > 10 | – | CCOC(=O)c1cnn(CC(O)CC)c1NC(=O)NC(C)C (stereo not drawn) | < 3 | inhibition at 10 µM [6]: 52% |
| – | 10000 | CCOC(=O)c1cnn(CC(O)c2ccccc2)c1NC(=O)NCc1ccccc1 (stereo not drawn) | – | – |
| 20 | 1000 | CCCC(O)Cn1ncc(C(=O)OCC)c1NC(=O)NC(C)C (stereo not drawn) | < 3 | – |
| 0.19 | 360 | CCOC(=O)c1cnn(CC(O)CC)c1NC(=O)Nc1cccc(F)c1 (stereo not drawn) | < 3 | – |
| 150 | 54.6 | CCOC(=O)c1cnn(C)c1NC(=O)N1CCN(Cc2ccccc2)CC1 | < 3 | – |
| – | 14000 | CCOC(=O)c1cnn(CC(O)c2ccccc2)c1NC(=O)N1CCN(Cc2ccccc2)CC1 (stereo not drawn) | – | – |
| 7.8 | – | CCOC(=O)c1cnn(CC(O)c2ccccc2)c1NC(=O)Nc1cccc2ccccc12 (stereo not drawn) | < 3 | – |
| > 10 | 200 | CCOC(=O)c1cnn(CC(C)O)c1NC(=O)Nc1ccc(F)cc1 (stereo not drawn) | < 3 | inhibition at 10 µM [6]: 55% |
| 1.1 | 90 | CCCC(O)Cn1ncc(C(=O)OCC)c1NC(=O)N1CCN(Cc2ccccc2)CC1 (stereo not drawn) | < 3 | – |
| 90 | 0.82 | CCOC(=O)c1cnn(CC(C)O)c1NC(=O)NC(C)C (stereo not drawn) | < 3 | – |
